Patent publication US8030354B2, “Substituted biphenyl GPR40 modulators” (Amgen Inc., priority 2007, dated 2011)

These molecules were tested against GPR40 (Homo sapiens, UniProt O14842) (assay: Cell-based aequorin assay (CHO cells stably expressing GPR40 and aequorin)). Settings: activation of human GPR40, CHO cells, 0.01% HSA.
Design: expressed in transfected cells; host or cells: CHO cells stably transfected with GPR40 and aequorin
Experimental: Briefly, the Aequorin assays were performed on doubly stable CHO cells expressing GPR40 and Aequorin DNA. […] The luminescence was recorded over a period of 20 seconds with a Microlumat luminometer (Berthold). […] The inositol phosphate assay was performed on an A9 cell line stably transfected with GPR40 (A9_GPR40). The cells were incubated with different concentrations of compounds and [^3H] inositol accumulation was measured after 1 hour.
Cell-based aequorin assays were employed to characterize the modulatory activity of compounds on the GPR40 signaling pathway. In an exemplary assay, CHO cells were stably transfected with both GPR40 and Aequorin (Euroscreen). Cells were detached from the tissue culture dish with 2 mL of trypsin (0.25%(w/v)). Trypsinization was halted with 28 mL of Hanks Buffered Salt Solution containing 20 mM Hepes (H/HBSS) and 0.01% fatty acid-free human serum albumin (HSA). Coelantrazine is added to 1 ug/mL, and the cells were incubated for 2 hours at room temperature. Compounds were dissolved in DMSO for preparation of 10 mM stock solutions. Compounds were diluted in H/HBSS containing 0.01% HSA. Serial dilutions of the test compounds were prepared to determine dose response.
Aequorin luminescence measurements were made using an EG&G Berthold 96-well luminometer, and the response was measured over a 20 second interval after cells and compounds were mixed. The maximum relative light units was plotted to determine dose response. The EC50 (effective concentration to reach 50% maximal response) was determined from the dose response plot.

GPR40, sequence (O14842 whole entry): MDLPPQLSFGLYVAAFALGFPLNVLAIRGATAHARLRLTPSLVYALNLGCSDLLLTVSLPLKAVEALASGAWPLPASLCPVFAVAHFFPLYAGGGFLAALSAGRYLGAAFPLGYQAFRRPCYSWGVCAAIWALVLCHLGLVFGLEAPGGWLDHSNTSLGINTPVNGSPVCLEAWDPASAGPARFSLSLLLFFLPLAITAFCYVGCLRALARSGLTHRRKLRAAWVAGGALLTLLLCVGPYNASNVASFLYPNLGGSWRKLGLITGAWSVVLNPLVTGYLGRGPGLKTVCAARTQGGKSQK

Structure (SMILES) | EC50
CSc1cccc(-c2ccc(COc3cccc([C@H](C)CC(=O)O)c3)cc2C(C)(C)C)c1 (single isomer, unassigned) [Example 3, (3R)-3-(3-(((2-(1,1-Dimethylethyl)-3′-(methylsulfanyl)-1,1′-biphenyl-4-yl)methyl)oxy)phenyl)butanoic acid or (3S)-3-(3-(((2-(1,1-dimethylethyl)-3′-(methylsulfanyl)-1,1′-biphenyl-4-yl)methyl)oxy)phenyl)butanoic acid] | 1000 to 10000 nM
COc1ccc(F)c(-c2ccc(COc3cccc([C@H](CC(=O)O)C4CC4)c3)cc2C(C)(C)C)c1 (single isomer, unassigned) [Example 10, (3R)-3-Cyclopropyl-3-(3-(((2-(1,1-dimethylethyl)-2′-fluoro-5′-(methyloxy)-1,1′-biphenyl-4-yl)methyl)oxy)phenyl)propanoic acid or (3S)-3-cyclopropyl-3-(3-(((2-(1,1-dimethylethyl)-2′-fluoro-5′-(methyloxy)-1,1′-biphenyl-4-yl)methyl)oxy)phenyl)propanoic acid] | 1000 to 10000 nM
CCCCOc1cc(COc2cccc([C@H](CC(=O)O)C3CC3)c2)ccc1-c1cc(OC)ccc1F (single isomer, unassigned) [Example 11, (3R)-3-(3-(((2-(Butyloxy)-2′-fluoro-5′-(methyloxy)-1,1′-biphenyl-4-yl)methyl)oxy)phenyl)-3-cyclopropylpropanoic acid or (3S)-3-(3-(((2-(butyloxy)-2′-fluoro-5′-(methyloxy)-1,1′-biphenyl-4-yl)methyl)oxy)phenyl)-3-cyclopropylpropanoic acid] | 1000 to 10000 nM
C=C[C@H](CC(=O)O)c1cccc(OCc2ccc(-c3cc(OC)ccc3F)c(C(C)(C)C)c2)c1 (single isomer, unassigned) [Example 15, (3S)-3-(3-(((2-(1,1-Dimethylethyl)-2′-fluoro-5′-(methyloxy)-1,1′-biphenyl-4-yl)methyl)oxy)phenyl)-4-pentenoic acid or (3R)-3-(3-(((2-(1,1-dimethylethyl)-2′-fluoro-5′-(methyloxy)-1,1′-biphenyl-4-yl)methyl)oxy)phenyl)-4-pentenoic acid] | 1000 to 10000 nM
C=C[C@H](CC(=O)O)c1cccc(OCc2ccc(-c3cc(OC)ccc3F)c(OCCCC)c2)c1 (single isomer, unassigned) [Example 16, (3S)-3-(3-(((2-(Butyloxy)-2′-fluoro-5′-(methyloxy)-1,1′-biphenyl-4-yl)methyl)oxy)phenyl)-4-pentenoic acid or (3R)-3-(3-(((2-(butyloxy)-2′-fluoro-5′-(methyloxy)-1,1′-biphenyl-4-yl)methyl)oxy)phenyl)-4-pentenoic acid] | 1000 to 10000 nM
C=CC(CC(=O)O)c1cccc(OCc2ccc(-c3cc(OC)ccc3F)c(C(C)(C)C)c2)c1 (single isomer, unassigned) [Example 19, (3R)-3-(3-(((2-(1,1-Dimethylethyl)-2′-fluoro-5′-(methyloxy)-1,1′-biphenyl-4-yl)methyl)oxy)phenyl)-4-pentenoic acid or (3S)-3-(3-(((2-(1,1-dimethylethyl)-2′-fluoro-5′-(methyloxy)-1,1′-biphenyl-4-yl)methyl)oxy)phenyl)-4-pentenoic acid] | 1000 to 10000 nM
CCCCOc1cc(COc2cccc([C@H](C)CC(=O)O)c2)ccc1-c1ccc(OC)cc1 (single isomer, unassigned) [Example 21, (3R)-3-(3-(((2-(Butyloxy)-4′-(methyloxy)-1,1′-biphenyl-4-yl)methyl)oxy)phenyl)butanoic acid or (3S)-3-(3-(((2-(butyloxy)-4′-(methyloxy)-1,1′-biphenyl-4-yl)methyl)oxy)phenyl)butanoic acid] | 1000 to 10000 nM
CCCCOc1cc(COc2cccc([C@H](C)CC(=O)O)c2)ccc1-c1cccc(OCC)c1 (single isomer, unassigned) [Example 22, (3R)-3-(3-(((2-(Butyloxy)-3′-(ethyloxy)-1,1′-biphenyl-4-yl)methyl)oxy)phenyl)butanoic acid or (3S)-3-(3-(((2-(butyloxy)-3′-(ethyloxy)-1,1′-biphenyl-4-yl)methyl)oxy)phenyl)butanoic acid] | 1000 to 10000 nM
CCCCOc1cc(COc2cccc([C@H](C)CC(=O)O)c2)ccc1-c1cc(OCC)ccc1F (single isomer, unassigned) [Example 23, (3R)-3-(3-(((2-(Butyloxy)-5′-(ethyloxy)-2′-fluoro-1,1′-biphenyl-4-yl)methyl)oxy)phenyl)butanoic acid or (3S)-3-(3-(((2-(butyloxy)-5′-(ethyloxy)-2′-fluoro-1,1′-biphenyl-4-yl)methyl)oxy)phenyl)butanoic acid] | 1000 to 10000 nM
CCCCOc1cc(COc2cccc([C@H](C)CC(=O)O)c2)ccc1-c1ccccc1F (single isomer, unassigned) [Example 24, (3R)-3-(3-(((2-(Butyloxy)-2′-fluoro-1,1′-biphenyl-4-yl)methyl)oxy)phenyl)butanoic acid or (3S)-3-(3-(((2-(butyloxy)-2′-fluoro-1,1′-biphenyl-4-yl)methyl)oxy)phenyl)butanoic acid] | 1000 to 10000 nM
CCCCOc1cc(COc2cccc([C@H](C)CC(=O)O)c2)ccc1-c1ccccc1OC (single isomer, unassigned) [Example 25, (3R)-3-(3-(((2-(Butyloxy)-2′-(methyloxy)-1,1′-biphenyl-4-yl)methyl)oxy)phenyl)butanoic acid or (3S)-3-(3-(((2-(butyloxy)-2′-(methyloxy)-1,1′-biphenyl-4-yl)methyl)oxy)phenyl)butanoic acid] | > 10000 nM
COc1ccc(F)c(-c2ccc(COc3cccc([C@H](C)CC(=O)O)c3)cc2OC2CCCCO2)c1 (single isomer, unassigned) [Example 26, (3R)-3-(3-(((2′-Fluoro-5′-(methyloxy)-2-(tetrahydro-2H-pyran-2-yloxy)-1,1′-biphenyl-4-yl)methyl)oxy)phenyl)butanoic acid or (3S)-3-(3-(((2′-fluoro-5′-(methyloxy)-2-(tetrahydro-2H-pyran-2-yloxy)-1,1′-biphenyl-4-yl)methyl)oxy)phenyl)butanoic acid] | 100 to 1000 nM
CCCOc1cc(COc2cccc([C@H](C)CC(=O)O)c2)ccc1-c1cc(OC)ccc1F (single isomer, unassigned) [Example 27, (3R)-3-(3-(((2′-Fluoro-5′-(methyloxy)-2-(propyloxy)-1,1′-biphenyl-4-yl)methyl)oxy)phenyl)butanoic acid or (3S)-3-(3-(((2′-fluoro-5′-(methyloxy)-2-(propyloxy)-1,1′-biphenyl-4-yl)methyl)oxy)phenyl)butanoic acid] | 1000 to 10000 nM
CCCCCOc1cc(COc2cccc([C@H](C)CC(=O)O)c2)ccc1-c1cc(OC)ccc1F (single isomer, unassigned) [Example 28, (3R)-3-(3-(((2′-Fluoro-5′-(methyloxy)-2-(pentyloxy)-1,1′-biphenyl-4-yl)methyl)oxy)phenyl)butanoic acid or (3S)-3-(3-(((2′-fluoro-5′-(methyloxy)-2-(pentyloxy)-1,1′-biphenyl-4-yl)methyl)oxy)phenyl)butanoic acid] | 100 to 1000 nM
COc1ccc(F)c(-c2ccc(COc3cccc([C@H](C)CC(=O)O)c3)cc2OCC(C)C)c1 (single isomer, unassigned) [Example 29, (3R)-3-(3-(((2′-Fluoro-5′-(methyloxy)-2-((2-methylpropyl)oxy)-1,1′-biphenyl-4-yl)methyl)oxy)phenyl)butanoic acid or (3S)-3-(3-(((2′-fluoro-5′-(methyloxy)-2-((2-methylpropyl)oxy)-1,1′-biphenyl-4-yl)methyl)oxy)phenyl)butanoic acid] | 100 to 1000 nM
COc1ccc(F)c(-c2ccc(COc3cccc([C@H](C)CC(=O)O)c3)cc2OCc2ccccc2)c1 (single isomer, unassigned) [Example 30, (3R)-3-(3-(((2′-Fluoro-5′-(methyloxy)-2-((phenylmethyl)oxy)-1,1′-biphenyl-4-yl)methyl)oxy)phenyl)butanoic acid or (3S)-3-(3-(((2′-fluoro-5′-(methyloxy)-2-((phenylmethyl)oxy)-1,1′-biphenyl-4-yl)methyl)oxy)phenyl)butanoic acid] | 1000 to 10000 nM
COc1ccc(F)c(-c2ccc(COc3cccc([C@H](C)CC(=O)O)c3)cc2OC(C)C)c1 (single isomer, unassigned) [Example 31, (3R)-3-(3-(((2′-Fluoro-2-((1-methylethyl)oxy)-5′-(methyloxy)-1,1′-biphenyl-4-yl)methyl)oxy)phenyl)butanoic acid or (3S)-3-(3-(((2′-fluoro-2-((1-methylethyl)oxy)-5′-(methyloxy)-1,1′-biphenyl-4-yl)methyl)oxy)phenyl)butanoic acid] | 100 to 1000 nM
COc1ccc(F)c(-c2ccc(COc3cccc([C@H](C)CC(=O)O)c3)cc2OC2CCCC2)c1 (single isomer, unassigned) [Example 32, (3R)-3-(3-(((2-(Cyclopentyloxy)-2′-fluoro-5′-(methyloxy)-1,1′-biphenyl-4-yl)methyl)oxy)phenyl)butanoic acid or (3S)-3-(3-(((2-(cyclopentyloxy)-2′-fluoro-5′-(methyloxy)-1,1′-biphenyl-4-yl)methyl)oxy)phenyl)butanoic acid] | 100 to 1000 nM
